Test results as given in the OPERA property sets (Mansouri et al. 2018).

Conditions: for log10 BCF / log10 biotransformation half-life (days): fish

Q: Which boiling point does the source give for FC(F)(F)C(Cl)=C(Cl)Cl here?
A: 88.1 °C

Q: With O=C(O)C(Br)Br as the compound, how does the log10 Henry constant (atm·m³/mol) read?
A: -8.35

Q: And the melting point?
A: 49 °C

Q: With CCCC(CCC)C(N)=O as the compound, how does the melting point read?
A: 125 °C

Q: With Nc1cc(Cl)c(Cl)cc1Cl as the compound, how does the boiling point read?
A: 270 °C

Q: What about the melting point of the same compound?
A: 96.5 °C

Q: And the log10 BCF?
A: 2.33

Q: What about the log10 biotransformation half-life (days) of the same compound?
A: -0.01

Q: For N#CC(O)C(Cl)(Cl)Cl (stereo not drawn), which melting point is on record?
A: 61 °C

Q: With O=C1C(Cl)C(CCl)CN1c1cccc(C(F)(F)F)c1 (stereo not drawn) as the compound, how does the log10 vapour pressure (mmHg) read?
A: -5.48

Q: And the melting point?
A: 67.7 °C

Q: Which melting point does the source give for CSc1nc2ccccc2s1 here?
A: 44 °C

Q: For CCCN=C=O, which boiling point is on record?
A: 83.5 °C

Q: Which melting point does the source give for NC[C@H](O)C(=O)O here?
A: 235 °C

Q: Which melting point does the source give for CCCCCCCCCCCCCCCCCC(=O)OCCO here?
A: 60.5 °C

Q: Which boiling point does the source give for N#Cc1ccco1 here?
A: 147 °C

Q: For COC(OC)(OC)OC, which boiling point is on record?
A: 114 °C

Q: What about the melting point of the same compound?
A: -5 °C

Q: With OCC1CCCC1 as the compound, how does the boiling point read?
A: 163 °C

Q: With NNC(=O)NN as the compound, how does the melting point read?
A: 154 °C

Q: For CC(C)(C)CC1(C)CO1 (stereo not drawn), which boiling point is on record?
A: 141 °C

Q: What about the melting point of the same compound?
A: -64 °C

Q: With O=C(O)COc1cc(Cl)c(Cl)cc1Cl as the compound, how does the log10 Koc (L/kg) read?
A: 1.99

Q: What about the melting point of the same compound?
A: 153 °C

Q: For Cn1c(=O)c2[nH]cnc2n(C)c1=O, which melting point is on record?
A: 273 °C

Q: Which boiling point does the source give for CNC(=O)NC here?
A: 269 °C

Q: What about the melting point of the same compound?
A: 108 °C

Q: What about the ready biodegradability of the same compound?
A: not readily biodegradable

Q: What does the source list for O=C(O)CCCCCCCCCCCCC(=O)O?
A: melting point: 127 °C; ready biodegradability: readily biodegradable

Q: Which boiling point does the source give for CCCC(CC)CC here?
A: 119 °C

Q: What about the log10 biodegradation half-life (days) of the same compound?
A: 0.602

Q: And the log10 vapour pressure (mmHg)?
A: 1.3

Q: With CC1C(=O)CC2CC1C2(C)C (stereo not drawn) as the compound, how does the boiling point read?
A: 212 °C

Q: Which results are given for CCC1CCCC1?
A: boiling point: 104 °C; log10 biodegradation half-life (days): 1.18; log10 vapour pressure (mmHg): 1.6; melting point: -138 °C

Q: With O=C(Nc1ccc(Br)cc1)c1cc(Br)ccc1O as the compound, how does the melting point read?
A: 242 °C

Q: Which boiling point does the source give for NCCCCCN here?
A: 179 °C

Q: What about the melting point of the same compound?
A: 9 °C

Q: For CCCCCCCCCCCCCCCCCCCC(=O)OC, which melting point is on record?
A: 54.5 °C

Q: With Nc1ccccc1-c1ccccc1N as the compound, how does the log10 vapour pressure (mmHg) read?
A: -5.57

Q: And the melting point?
A: 81 °C

Q: With c1ccc2c(c1)CCNC2 as the compound, how does the boiling point read?
A: 232 °C

Q: With CCCCCC(=O)Cc1cc(O)cc2c1C(=O)Oc1cc(O)c(C(=O)O)c(CCCCC)c1O2 as the compound, how does the melting point read?
A: 205 °C

Q: Which boiling point does the source give for C=CCCCCCCCCCCCCCC here?
A: 285 °C

Q: What about the log10 vapour pressure (mmHg) of the same compound?
A: -2.58

Q: And the melting point?
A: 4.1 °C

Q: And the ready biodegradability?
A: readily biodegradable

Q: And the log10 biotransformation half-life (days)?
A: 1.67

Q: For CCc1ccccc1C, which boiling point is on record?
A: 165 °C

Q: What about the log10 biodegradation half-life (days) of the same compound?
A: 0.602

Q: What about the log10 vapour pressure (mmHg) of the same compound?
A: 0.417

Q: For O=C1c2ccccc2C(=O)C1c1ccc2ccccc2n1, which melting point is on record?
A: 241 °C

Q: For CC(C)c1ccc(OP(=O)(Oc2ccc(C(C)C)cc2)Oc2ccc(C(C)C)cc2)cc1, which ready biodegradability is on record?
A: not readily biodegradable

Q: Which melting point does the source give for O=[N+]([O-])c1ccc(O)cc1O here?
A: 122 °C

Q: With NC(N)=N/C(N)=N/c1ccccc1 as the compound, how does the melting point read?
A: 143 °C

Q: With COc1cc(C=O)cc(OC)c1 as the compound, how does the melting point read?
A: 46.3 °C

Q: Which results are given for CCOC(=O)N1CCN(C(=O)OCC)CC1?
A: boiling point: 315 °C; melting point: 47 °C

Q: What does the source list for CC/C(=C\c1ccccc1)[N+](=O)[O-]?
A: boiling point: 308 °C; melting point: 90.5 °C

Q: With CC(F)(F)CCl as the compound, how does the boiling point read?
A: 55 °C

Q: And the melting point?
A: -56.2 °C

Q: Which melting point does the source give for O=C(OCC(COC(=O)c1cccnc1)(COC(=O)c1cccnc1)COC(=O)c1cccnc1)c1cccnc1 here?
A: 162 °C

Q: For Cc1ccccc1CC#N, which boiling point is on record?
A: 244 °C

Q: Which boiling point does the source give for Cc1ccccc1N=C=O here?
A: 185 °C

Q: With CCCC(O)C(CC)CO (stereo not drawn) as the compound, how does the boiling point read?
A: 244 °C

Q: What about the log10 vapour pressure (mmHg) of the same compound?
A: -2.52

Q: And the melting point?
A: -40 °C

Q: For C=C1C(=O)O[C@@H]2C[C@@H](C)[C@@H]3C=CC(=O)[C@@]3(C)[C@@H](O)[C@H]12, which melting point is on record?
A: 168 °C

Q: With CCN(CC)C1CCCCC1 as the compound, how does the boiling point read?
A: 193 °C

Q: With O=C1c2ccccc2C(=O)C1c1ccc(Br)cc1 as the compound, how does the melting point read?
A: 138 °C

Q: With CC(Cl)(Cl)[N+](=O)[O-] as the compound, how does the boiling point read?
A: 124 °C

Q: And the log10 vapour pressure (mmHg)?
A: 1.23

Q: Which boiling point does the source give for CCC(Cl)(Cl)[N+](=O)[O-] here?
A: 145 °C

Q: For CCOCC, which boiling point is on record?
A: 34.6 °C

Q: And the log10 Henry constant (atm·m³/mol)?
A: -2.91

Q: And the log10 Koa?
A: 2.19

Q: And the log10 vapour pressure (mmHg)?
A: 2.73

Q: And the melting point?
A: -116 °C

Q: And the ready biodegradability?
A: not readily biodegradable

Q: And the log10 BCF?
A: 0.73

Q: And the log10 biotransformation half-life (days)?
A: -0.7

Q: Which melting point does the source give for CC(=O)c1ccc(C#N)cc1 here?
A: 57.5 °C

Q: Which melting point does the source give for O=[N+]([O-])c1ccccc1CCl here?
A: 51 °C

Q: With COC(=O)c1ccc(C(=O)OC)o1 as the compound, how does the melting point read?
A: 112 °C

Q: For COC(=O)C(C)N(C(=O)c1ccccc1)c1ccc(F)c(Cl)c1 (stereo not drawn), which melting point is on record?
A: 85 °C

Q: With O=[N+]([O-])c1ccc(Cc2ccncc2)cc1 as the compound, how does the melting point read?
A: 71 °C

Q: With CC(C)(N)CO as the compound, how does the boiling point read?
A: 166 °C

Q: And the log10 vapour pressure (mmHg)?
A: 0

Q: And the melting point?
A: 25.5 °C

Q: With COCC(=O)Cl as the compound, how does the boiling point read?
A: 112 °C

Q: With C[C@H](Oc1ccccc1)C(=O)O as the compound, how does the boiling point read?
A: 266 °C

Q: What about the melting point of the same compound?
A: 118 °C

Q: Which boiling point does the source give for CCCCCCCCCCCC(C)=O here?
A: 263 °C

Q: And the log10 vapour pressure (mmHg)?
A: -1.98

Q: And the melting point?
A: 30.5 °C

Q: Which log10 Koa does the source give for Clc1ccc(Cl)c2c(Cl)cccc12 here?
A: 7.56

Q: Which results are given for O=C=C=C=O?
A: boiling point: 6.8 °C; melting point: -107 °C

Q: Which melting point does the source give for O=C(Oc1ccc2ccccc2c1)c1ccccc1 here?
A: 107 °C

Q: Which melting point does the source give for COc1cccc([N+](=O)[O-])c1C here?
A: 55 °C

Q: With NC(=O)CC(N)C(=O)O (stereo not drawn) as the compound, how does the melting point read?
A: 234 °C

Q: With CC(O)C(Cl)(Cl)Cl (stereo not drawn) as the compound, how does the boiling point read?
A: 163 °C

Q: What about the melting point of the same compound?
A: 50.5 °C

Q: For Clc1ccc(-c2ccc(Cl)c(Cl)c2Cl)cc1Cl, which log10 Koa is on record?
A: 10

Q: And the log10 vapour pressure (mmHg)?
A: -5.18

Q: And the log10 biotransformation half-life (days)?
A: 2.06

Q: For CCOC(=O)Cc1ccccc1, which boiling point is on record?
A: 227 °C

Q: And the log10 Koc (L/kg)?
A: 1.89

Q: What about the melting point of the same compound?
A: -29.4 °C

Q: Which melting point does the source give for O=C(O)CN(CCO)CC(=O)O here?
A: 178 °C

Q: With N[C@@H](CSCC(=O)O)C(=O)O as the compound, how does the melting point read?
A: 206 °C

Q: Which results are given for C=CCCCCC?
A: boiling point: 93.6 °C; log10 vapour pressure (mmHg): 1.77; melting point: -120 °C

Q: What does the source list for CN(C)c1ccc(Cl)cc1?
A: boiling point: 231 °C; melting point: 35.5 °C

Q: With CCNC(N)=O as the compound, how does the melting point read?
A: 92.5 °C

Q: Which boiling point does the source give for CCCCC(CC)(CO)CO here?
A: 262 °C

Q: What about the log10 vapour pressure (mmHg) of the same compound?
A: -4

Q: And the melting point?
A: 43.8 °C

Q: And the ready biodegradability?
A: not readily biodegradable

Q: For CCC(=O)OCCC(C)C, which boiling point is on record?
A: 160 °C

Q: With C=CCC(=C)C as the compound, how does the boiling point read?
A: 56 °C

Q: Which melting point does the source give for Cc1csc(NS(=O)(=O)c2ccc(N)cc2)n1 here?
A: 237 °C

Q: With Oc1ccc(F)c(F)c1F as the compound, how does the melting point read?
A: 32 °C

Q: With CC(=O)Nc1ccc2c(c1)Cc1ccccc1-2 as the compound, how does the boiling point read?
A: 303 °C

Q: What about the log10 Koc (L/kg) of the same compound?
A: 3.14

Q: And the melting point?
A: 193 °C

Q: Which melting point does the source give for O=C(O)C(O)C(Cl)(Cl)Cl (stereo not drawn) here?
A: 125 °C

Q: For CCCCC(C)(C)CO, which boiling point is on record?
A: 172 °C

Q: For BrC(c1ccccc1)(c1ccccc1)c1ccccc1, which melting point is on record?
A: 153 °C

Q: Which results are given for Cc1ccc(S(=O)(=O)O)c(C)c1?
A: melting point: 57 °C; ready biodegradability: readily biodegradable

Q: For CCC(CC)CCC(C)C, which boiling point is on record?
A: 160 °C

Q: Which boiling point does the source give for CCOC(=O)C=C(C)C here?
A: 154 °C

Q: For CC(C)(Cl)CCC(C)(C)Cl, which melting point is on record?
A: 67.5 °C

Q: With CC1(O)CCCCC1 as the compound, how does the boiling point read?
A: 155 °C

Q: And the log10 vapour pressure (mmHg)?
A: 0.0531

Q: What about the melting point of the same compound?
A: 25 °C

Q: For COP(=S)(OC)Oc1ccc(Sc2ccc(OP(=S)(OC)OC)cc2)cc1, which log10 Koc (L/kg) is on record?
A: 5

Q: And the melting point?
A: 30 °C

Q: What does the source list for COC(=O)CCCCCCC(=O)OC?
A: boiling point: 268 °C; melting point: -3.1 °C

Q: Which melting point does the source give for NC(=O)CN1Cc2ccccc2OC1=O here?
A: 204 °C

Q: Which results are given for OCCc1ccccn1?
A: log10 Koc (L/kg): 1.45; melting point: -7.8 °C

Q: For Cc1cccc(N(C)C(=S)Oc2ccc3c(c2)C2CCC3C2)c1 (stereo not drawn), which melting point is on record?
A: 93 °C

Q: Which melting point does the source give for COc1ccc(/C=C/c2cc(OC)cc(=O)o2)cc1 here?
A: 156 °C

Q: What does the source list for O=C=Nc1cccc(Cl)c1?
A: log10 vapour pressure (mmHg): -0.712; melting point: -4 °C

Q: With CCCB(CCC)CCC as the compound, how does the boiling point read?
A: 159 °C

Q: And the melting point?
A: -56 °C

Q: With C(=N\C(/N=C/c1ccco1)c1ccco1)/c1ccco1 as the compound, how does the melting point read?
A: 117 °C

Q: For Cn1c(=O)c2c(ncn2CC(O)CO)n(C)c1=O (stereo not drawn), which melting point is on record?
A: 162 °C
